Data from US9889099B2, “Method and composition for enhancing milk production” (LAND O'LAKES, INC., priority 1999, dated 2018).

Test system: lactating cows
Assay: Example 1: feeding lactating cows control ration plus about 100 g sorbitol per day, 28 day test period
Type: in vivo, Holstein cows
Text: In this example, twenty Holstein cows averaging about thirty days in milk each, and thus in early lactation, were arranged in a randomized complete block design. Ten of the twenty cows were orally fed a control ration, and the other ten cows were orally fed a test ration that consisted of the control ration plus about 100 grams of sorbitol per day per cow. The cows were blocked by parity milk production, based upon the level of milk production by individual cows, after being in milk for fifteen to twenty days. After being blocked by parity milk production, the cows were randomly allotted to the control ration feeding or to the test ration feeding. The components of the control ration used in this example are shown in Table 1: The control ration was placed in the feeding troughs of the cattle once daily in the morning. When the test ration was to be provided to the test cattle, sorbitol was top dressed and lightly mixed into the control ration in the feeding trough of each cow being supplied with the test ration dosage of about 100 grams of sorbitol per cow per day, about one hour after the control ration was placed in the feeding trough. Then, the control ration and the test ration were lightly mixed in front of the cows six times per day to encourage additional feed ingestion by the cattle. Leftover rations from the previous day's feeding were collected and weighed from each feeding trough prior to feeding the test cattle the next day. The cows received a sufficient amount of the control ration to ensure that at least about ten weight percent, based upon the amount of control ration provided at the beginning of each day, remained per day for each test cow. The amount of sorbitol that was top dressed in the control ration to form the test ration was adjusted upward to account for the excess of control ration provided to ensure that the cows ingested the test ration dosage of about 100 grams of sorbitol per cow per day. Feed refusals were measured daily, and water was supplied ad libitum. […] Each cow was milked three times daily and the weight of produced milk was recorded at each milking. The milk was sampled once per day (⅓ of the sample volume from each milking) and was analyzed for protein, fat, lactose, and total solids, in accordance with the property determination and characterization techniques presented above. The milk production and milk component data was analyzed using the general linear model (GLM) statistical procedure of SAS® statistical analysis software for a randomized, complete block design that included both the particular feed regimen and the week of the test period in the model statement. […] Additionally, all data was analyzed to determine the mean of the data for each variable under consideration over the entire experimental period. […]

SMILES: OC[C@@H](O)[C@@H](O)[C@H](O)[C@@H](O)CO [sorbitol]
- Dry Matter Intake (about 100 g sorbitol/day/cow mixed with control ration, mean over 28 days, control 47.2, P 0.54): 45.6 pounds/day/cow
- Milk Production (about 100 g sorbitol/day/cow mixed with control ration, mean over 28 days, control 88.9, P 0.02): 93.5 pounds/day/cow
- difference in dry matter intake between control ration and test ration (FIG. 1) (about 100 g sorbitol/day/cow, P 0.54): statistically insignificant
- daily milk production at each weekly data point versus control cows (FIG. 2) (about 100 g sorbitol/day/cow, weekly means over four weeks): significant increase
